{"source": "ChEMBL document CHEMBL1201862", "about": "“PubChem BioAssay data set” (2004)", "key": {"[1]": {"target": "Voltage-dependent T-type calcium channel subunit alpha-1H (Homo sapiens, UniProt O95180)", "sequence (O95180 whole entry)": "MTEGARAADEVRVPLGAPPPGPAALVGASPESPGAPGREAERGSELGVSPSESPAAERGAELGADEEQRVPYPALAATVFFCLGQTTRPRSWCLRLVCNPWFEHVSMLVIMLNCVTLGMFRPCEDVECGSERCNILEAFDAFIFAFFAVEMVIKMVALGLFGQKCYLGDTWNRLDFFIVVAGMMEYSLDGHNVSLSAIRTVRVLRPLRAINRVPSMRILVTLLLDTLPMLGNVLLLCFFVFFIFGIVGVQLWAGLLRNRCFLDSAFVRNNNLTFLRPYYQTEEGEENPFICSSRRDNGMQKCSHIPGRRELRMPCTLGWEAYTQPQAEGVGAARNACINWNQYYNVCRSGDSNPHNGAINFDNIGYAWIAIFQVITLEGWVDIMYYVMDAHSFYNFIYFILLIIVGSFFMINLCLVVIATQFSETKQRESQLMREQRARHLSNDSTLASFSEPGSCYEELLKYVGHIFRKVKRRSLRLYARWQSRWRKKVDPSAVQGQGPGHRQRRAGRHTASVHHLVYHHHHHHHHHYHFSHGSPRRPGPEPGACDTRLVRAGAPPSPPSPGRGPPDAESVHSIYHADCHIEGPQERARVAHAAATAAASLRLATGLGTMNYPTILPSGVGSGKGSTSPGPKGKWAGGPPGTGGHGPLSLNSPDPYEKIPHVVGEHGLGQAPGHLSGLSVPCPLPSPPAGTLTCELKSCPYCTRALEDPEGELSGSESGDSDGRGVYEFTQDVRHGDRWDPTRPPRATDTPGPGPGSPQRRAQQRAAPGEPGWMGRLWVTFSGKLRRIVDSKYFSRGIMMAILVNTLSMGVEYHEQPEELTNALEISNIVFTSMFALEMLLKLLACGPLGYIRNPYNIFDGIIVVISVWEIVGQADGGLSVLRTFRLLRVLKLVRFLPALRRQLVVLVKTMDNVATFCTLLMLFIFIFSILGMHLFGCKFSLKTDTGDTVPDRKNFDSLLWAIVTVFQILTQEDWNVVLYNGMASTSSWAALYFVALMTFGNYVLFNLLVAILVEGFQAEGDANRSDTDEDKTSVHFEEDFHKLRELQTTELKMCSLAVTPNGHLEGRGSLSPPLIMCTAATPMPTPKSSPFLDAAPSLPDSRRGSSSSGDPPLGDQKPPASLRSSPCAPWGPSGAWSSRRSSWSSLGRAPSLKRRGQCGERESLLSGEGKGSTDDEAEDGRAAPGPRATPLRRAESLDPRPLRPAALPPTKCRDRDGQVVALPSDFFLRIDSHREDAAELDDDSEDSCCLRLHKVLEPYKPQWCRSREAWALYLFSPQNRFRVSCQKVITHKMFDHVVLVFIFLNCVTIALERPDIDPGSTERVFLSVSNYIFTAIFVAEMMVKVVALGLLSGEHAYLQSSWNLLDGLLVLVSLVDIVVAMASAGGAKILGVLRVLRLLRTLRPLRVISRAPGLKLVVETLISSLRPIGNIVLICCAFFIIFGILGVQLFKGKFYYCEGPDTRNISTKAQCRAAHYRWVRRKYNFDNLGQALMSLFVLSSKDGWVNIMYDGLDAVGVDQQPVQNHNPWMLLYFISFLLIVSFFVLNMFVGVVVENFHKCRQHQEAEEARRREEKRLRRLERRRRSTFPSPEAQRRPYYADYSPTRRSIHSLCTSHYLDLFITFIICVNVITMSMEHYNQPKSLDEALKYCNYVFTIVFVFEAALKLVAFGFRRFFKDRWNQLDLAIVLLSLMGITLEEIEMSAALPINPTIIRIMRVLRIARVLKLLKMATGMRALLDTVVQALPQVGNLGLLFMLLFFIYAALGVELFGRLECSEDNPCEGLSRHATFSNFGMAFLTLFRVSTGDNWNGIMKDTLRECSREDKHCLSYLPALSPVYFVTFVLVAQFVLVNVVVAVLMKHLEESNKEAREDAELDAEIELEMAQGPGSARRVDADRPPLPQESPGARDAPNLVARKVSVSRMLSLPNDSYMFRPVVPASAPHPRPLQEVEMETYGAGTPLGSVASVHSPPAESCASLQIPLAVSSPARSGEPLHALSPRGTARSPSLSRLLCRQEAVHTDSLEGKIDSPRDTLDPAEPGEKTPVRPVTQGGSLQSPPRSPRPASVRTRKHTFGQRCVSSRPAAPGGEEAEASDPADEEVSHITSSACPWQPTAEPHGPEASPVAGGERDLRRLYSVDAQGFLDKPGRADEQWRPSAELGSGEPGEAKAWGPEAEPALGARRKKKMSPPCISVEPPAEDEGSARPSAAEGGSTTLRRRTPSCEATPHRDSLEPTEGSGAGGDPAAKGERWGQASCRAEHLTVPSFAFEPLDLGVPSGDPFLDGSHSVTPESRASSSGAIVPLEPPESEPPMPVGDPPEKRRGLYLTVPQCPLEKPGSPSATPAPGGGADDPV", "assay": "human CACNA1H calcium influx blockade – cell-based, synthetic library set 1, calcium flux (AID 493022)", "type": "functional"}, "[2]": {"target": "Melanin-concentrating hormone receptor 1 (Homo sapiens, UniProt Q99705)", "sequence (Q99705 whole entry)": "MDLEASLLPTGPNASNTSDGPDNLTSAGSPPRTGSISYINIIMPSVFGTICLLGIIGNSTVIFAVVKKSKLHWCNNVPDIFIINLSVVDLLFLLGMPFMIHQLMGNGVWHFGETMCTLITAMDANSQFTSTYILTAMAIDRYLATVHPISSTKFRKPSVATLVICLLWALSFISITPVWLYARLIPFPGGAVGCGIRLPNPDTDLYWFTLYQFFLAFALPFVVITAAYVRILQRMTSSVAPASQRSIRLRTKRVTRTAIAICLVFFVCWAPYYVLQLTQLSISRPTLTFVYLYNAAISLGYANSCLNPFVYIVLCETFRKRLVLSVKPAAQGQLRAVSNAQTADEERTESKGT", "assay": "Late-stage fluorescence-based counterscreen for antagonists of the G-protein coupled receptor 7 (GPR7): cell-based dose response assay to identify antagonists of the melanin-concentrating hormone receptor 1 (MCHR1). [Related pubchem assays (depositor defined):AID1861, AID1880, AID1952, AID2148, AID2251, AID2257, AID485339]", "type": "functional"}, "[3]": {"target": "T1, Neuropeptides B/W receptor type 1 (Homo sapiens, UniProt P48145)", "T1 sequence (P48145 whole entry)": "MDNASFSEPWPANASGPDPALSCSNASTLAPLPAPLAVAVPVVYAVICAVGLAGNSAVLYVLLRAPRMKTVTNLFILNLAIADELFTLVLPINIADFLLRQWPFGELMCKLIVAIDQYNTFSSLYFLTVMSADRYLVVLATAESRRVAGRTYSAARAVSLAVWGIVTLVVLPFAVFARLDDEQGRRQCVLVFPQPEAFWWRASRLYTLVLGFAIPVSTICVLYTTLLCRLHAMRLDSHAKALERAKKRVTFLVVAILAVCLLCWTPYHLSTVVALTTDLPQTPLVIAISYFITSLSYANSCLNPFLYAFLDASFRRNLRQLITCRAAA", "assay": "human NPBW1 receptor blockade, IC50 – cell-based, fluorescence, dose response, late-stage follow-up (AID 463251)", "type": "functional"}, "Beta-galactosidase [4]": {"target": "T2, Beta-galactosidase (Escherichia coli, UniProt Q8VNN2)", "T2 sequence (Q8VNN2 whole entry)": "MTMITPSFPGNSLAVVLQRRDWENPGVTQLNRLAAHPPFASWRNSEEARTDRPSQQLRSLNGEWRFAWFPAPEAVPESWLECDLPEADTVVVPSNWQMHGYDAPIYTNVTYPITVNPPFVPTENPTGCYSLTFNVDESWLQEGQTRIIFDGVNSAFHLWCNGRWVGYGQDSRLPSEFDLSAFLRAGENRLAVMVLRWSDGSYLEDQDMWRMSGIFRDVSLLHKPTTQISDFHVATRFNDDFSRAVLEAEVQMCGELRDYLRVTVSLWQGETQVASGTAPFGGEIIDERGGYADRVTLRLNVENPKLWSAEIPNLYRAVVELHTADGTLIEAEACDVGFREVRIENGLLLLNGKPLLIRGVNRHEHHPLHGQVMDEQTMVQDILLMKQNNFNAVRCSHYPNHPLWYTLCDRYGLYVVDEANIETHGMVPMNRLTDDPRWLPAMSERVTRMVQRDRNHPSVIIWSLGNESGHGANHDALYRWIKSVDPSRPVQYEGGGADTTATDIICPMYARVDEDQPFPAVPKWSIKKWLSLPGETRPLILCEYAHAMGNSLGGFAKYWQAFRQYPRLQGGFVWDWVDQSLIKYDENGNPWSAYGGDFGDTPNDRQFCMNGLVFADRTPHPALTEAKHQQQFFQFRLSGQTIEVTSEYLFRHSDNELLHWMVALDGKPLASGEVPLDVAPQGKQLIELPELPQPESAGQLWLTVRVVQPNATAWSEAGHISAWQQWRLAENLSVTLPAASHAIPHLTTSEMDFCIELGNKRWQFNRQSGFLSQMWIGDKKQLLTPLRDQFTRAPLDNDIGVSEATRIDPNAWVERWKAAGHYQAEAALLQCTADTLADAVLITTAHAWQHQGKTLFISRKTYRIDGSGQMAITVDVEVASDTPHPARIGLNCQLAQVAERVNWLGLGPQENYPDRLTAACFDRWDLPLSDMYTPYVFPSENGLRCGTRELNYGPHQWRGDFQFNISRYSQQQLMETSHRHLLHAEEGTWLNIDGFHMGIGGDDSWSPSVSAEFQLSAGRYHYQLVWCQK", "assay": "PubChem AID 485352", "type": "functional"}, "[5]": {"target": "T3, Type-1 angiotensin II receptor (Homo sapiens, UniProt P30556)", "T3 sequence (P30556 whole entry)": "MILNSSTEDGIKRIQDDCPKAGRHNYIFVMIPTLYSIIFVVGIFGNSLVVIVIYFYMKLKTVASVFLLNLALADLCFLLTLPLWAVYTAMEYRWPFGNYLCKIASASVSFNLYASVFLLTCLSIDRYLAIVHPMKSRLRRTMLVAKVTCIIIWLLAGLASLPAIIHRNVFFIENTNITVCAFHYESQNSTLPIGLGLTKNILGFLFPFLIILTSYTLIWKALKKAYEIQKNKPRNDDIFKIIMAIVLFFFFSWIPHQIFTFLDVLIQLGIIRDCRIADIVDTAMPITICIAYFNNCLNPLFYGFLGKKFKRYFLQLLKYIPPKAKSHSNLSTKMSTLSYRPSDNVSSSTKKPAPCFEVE", "assay": "antagonism of angiotensin II type 1 receptor – cell-based, uHTS hits, selectivity assay for APJ receptor antagonist project, dose response (AID 463214);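 also: antagonist potency against angiotensin II stimulated AT1 response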", "type": "functional"}, "[6]": {"target": "T4, Kappa-type opioid receptor (Homo sapiens, UniProt P41145)", "T4 sequence (P41145 whole entry)": "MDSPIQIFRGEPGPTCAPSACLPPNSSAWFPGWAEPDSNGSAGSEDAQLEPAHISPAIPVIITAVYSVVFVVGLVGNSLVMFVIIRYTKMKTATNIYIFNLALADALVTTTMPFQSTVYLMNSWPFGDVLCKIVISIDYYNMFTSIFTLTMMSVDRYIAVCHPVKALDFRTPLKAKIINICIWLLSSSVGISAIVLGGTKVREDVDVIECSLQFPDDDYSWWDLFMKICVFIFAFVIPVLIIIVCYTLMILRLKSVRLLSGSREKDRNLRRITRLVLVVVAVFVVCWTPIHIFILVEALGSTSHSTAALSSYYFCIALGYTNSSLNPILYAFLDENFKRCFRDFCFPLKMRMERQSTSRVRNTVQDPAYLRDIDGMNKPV", "type": "functional"}, "Beta-galactosidase [7]": {"target": "T2, Beta-galactosidase", "type": "functional"}, "[8]": {"target": "T4, Kappa-type opioid receptor", "type": "functional", "remark": "listed apart in the source"}, "[9]": {"assay": "THP-1 cell cytotoxicity, dose response, cytotoxicity control for non-replicating M. tuberculosis project (AID 489025)", "type": "functional"}, "[10]": {"assay": "HepG2 cell cytotoxicity, dose response, cytotoxicity control for non-replicating M. tuberculosis project (AID 489018)", "type": "functional", "conditions": "Mycobacterium tuberculosis"}, "[11]": {"assay": "Vero E6 cell cytotoxicity, dose response, cytotoxicity control for non-replicating M. tuberculosis project, secondary assay (AID 492998)", "type": "functional, VeroE6", "conditions": "Vero C1008"}, "Nonstructural protein 1": {"target": "Nonstructural protein 1 (Influenza A virus, UniProt Q194T2)", "sequence (Q194T2 whole entry)": "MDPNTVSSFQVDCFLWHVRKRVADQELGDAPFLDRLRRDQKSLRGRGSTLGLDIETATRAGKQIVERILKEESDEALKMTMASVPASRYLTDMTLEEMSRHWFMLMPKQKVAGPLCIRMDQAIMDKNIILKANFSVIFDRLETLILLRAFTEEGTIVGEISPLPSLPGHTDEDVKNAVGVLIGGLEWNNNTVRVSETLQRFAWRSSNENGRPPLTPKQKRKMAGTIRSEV", "type": "functional, Influenza A virus (A/California/07/2009(H1N1))"}, "[12]": {"target": "T5, Microphthalmia-associated transcription factor (Homo sapiens, UniProt O75030)", "T5 sequence (O75030 whole entry)": "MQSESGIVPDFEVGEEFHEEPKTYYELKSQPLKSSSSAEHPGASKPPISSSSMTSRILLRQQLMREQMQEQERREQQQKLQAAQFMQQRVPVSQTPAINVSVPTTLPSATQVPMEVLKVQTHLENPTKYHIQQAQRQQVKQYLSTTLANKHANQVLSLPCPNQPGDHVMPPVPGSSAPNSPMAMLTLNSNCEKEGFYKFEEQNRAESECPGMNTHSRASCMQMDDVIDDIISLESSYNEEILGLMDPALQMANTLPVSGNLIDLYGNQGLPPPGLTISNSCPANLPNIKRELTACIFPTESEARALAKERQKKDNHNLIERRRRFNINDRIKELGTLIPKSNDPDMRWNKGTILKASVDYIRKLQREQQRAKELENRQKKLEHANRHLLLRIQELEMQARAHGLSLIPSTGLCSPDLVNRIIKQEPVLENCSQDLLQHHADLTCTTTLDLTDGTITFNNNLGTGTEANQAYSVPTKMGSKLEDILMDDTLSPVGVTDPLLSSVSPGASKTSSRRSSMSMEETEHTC", "assay": "reducers of TRPM1 reporter luminescence, concentration series – cell-based, SK-MEL-5, cherry-picked, set 3, MITF inhibitor project, dose response (AID 493073);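 also: SK-MEL-5 melanoma cells with luciferase driven by the MITF target TRPM1 promoter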", "type": "functional"}, "cells": {"assay": "cells", "type": "functional"}, "INS1": {"test_system": "INS1", "assay": "INS-1E survival protection against cytokine death – cell-based, luminescence, retest, dose response (AID 449756);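 also: cell death triggered by IL-1 beta plus TNF-alpha plus IFN-gamma mixture; protective hits raise ATP signal compared with cytokine alone wells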", "type": "functional", "conditions": "Rattus norvegicus"}, "[13]": {"assay": "viability loss in THP-1 monocytes – THP-1 cells, cytotoxicity control for Vif-APOBEC3G degradation inhibitor project, dose response (AID 1117359)", "type": "functional", "conditions": "THP-1"}}, "note": "Calls of active or inactive are those of the source."}
{"smiles": "O=C(COc1ccccc1Cl)Nc1nnc(-c2ccc3c(c2)CCCC3)o1", "values": [{"measurement": "EC50", "setting": "[1]", "result": "10 µM (active)"}]}
{"smiles": "COc1ccc(Oc2c(Cl)cnn(-c3cc(C(F)(F)F)cc(C(F)(F)F)c3)c2=O)cc1", "values": [{"measurement": "IC50", "setting": "[2]", "result": "1.5 µM (active)"}, {"measurement": "IC50", "setting": "[3]", "result": "1.2 µM (active)"}]}
{"smiles": "C/C(=N\\NC(=O)C(C)Oc1ccc([N+](=O)[O-])cc1)c1ccccn1", "note": "(stereo unspecified)", "values": [{"measurement": "EC50", "setting": "Beta-galactosidase [4]", "result": "> 40 µM (inactive)"}, {"measurement": "IC50", "setting": "[5]", "result": "9.48 µM (active)"}, {"measurement": "IC50", "setting": "[6]", "result": "3.19 µM (active)"}, {"measurement": "EC50", "setting": "Beta-galactosidase [7]", "result": "> 31.5 µM (inactive)"}, {"measurement": "IC50", "setting": "[8]", "result": "> 32", "unit": "µM"}, {"measurement": "CC50", "setting": "[9]", "result": "1.54 µM (active)"}, {"measurement": "CC50", "setting": "[10]", "result": "8.26 µM (active)"}, {"measurement": "CC50", "setting": "[11]", "result": "3.54 µM (active)"}, {"measurement": "IC50", "setting": "Nonstructural protein 1", "result": "6.88 µM (active)"}, {"measurement": "AC50", "setting": "[12]", "result": "2.38 µM (active)"}, {"measurement": "IC50", "setting": "cells", "result": "6.28 µM (active)"}, {"measurement": "AC50", "setting": "INS1", "result": "1.12 µM (active)"}, {"measurement": "CC50", "setting": "[13]", "result": "1.8 µM (active)"}]}
